{"source": "patent US20080131920A1", "about": "“Ion flux in biological processes, and methods related thereto” (priority 2005, published 2008)", "key": {"[1]": {"system": "KCNK1", "test": "KCNK1 expression in the regeneration bud", "parameters": "species or system Xenopus laevis", "details": "in vivo", "excerpt": "We then sought to functionally link V-ATPase activity to gene expression in the regeneration bud. Existing markers include Notch pathway genes^2. […] Because of this, and because the V-ATPase is expressed so soon following amputation, we utilized an earlier marker that is normally expressed by 12 hpa: the K^+ channel KCNK1 (FIG. 14E,E′). In larvae in which V-ATPase activity was abrogated by concanamycin or a function-blocking anti-V-ATPase antibody, KCNK1 expression was absent (N=13, FIG. 14F,F′-G,G′). Thus, V-ATPase is upstream of some gene expression in the regeneration bud, including other ion transporters also specifically expressed during early stages of regeneration.\nLarvae were fixed in MEMFA (Sive et al., 2000) and dehydrated in methanol. In situ hybridization was carried out according to standard protocols (Harland, 1991, Xenopus laevis: Practical uses in cell and molecular biology 36: 685-695). The ion transporter constructs used to generate probes for in situ hybridization (ISH) experiments were: Kcnk1 (TWIK-1, BC042262, Open Biosystems), V-ATPase 16 kDa subunit (BE025959, RZPD). Plasmids were used to generate anti-sense riboprobes by in vitro transcription. […] Expression indicated represents consistent consensus patterns obtained from analysis of at least 15 larvae in all experiments. […]"}, "[2]": {"system": "activated caspase-3", "test": "Activated caspase-3 localization (apoptosis) in regenerating tails", "assay_type": "in vivo, Xenopus laevis", "details": "V-ATPase-inhibited larvae", "experimental": "Further experiments were done in the Xenopus system based on the results of the pharmacological screen (see Example 6). […] The V-ATPase (Nishi, 2002, Nature Reviews Molecular Cell Biology 3: 94-103) generates strong pH and voltage gradients at the expense of ATP, when expressed in vesicular or cell plasma membranes.\nXenopus larvae were fixed overnight in MEMFA, heated for 2 hrs at 65° C. in 50% formamide (to inactivate endogenous alkaline phosphatases; this procedure was not done when using fluorescent secondary antibodies), permeabilized in PBTr+0.1% Triton X100 for 30 min, and processed for immunohistochemistry using alkaline phosphatase secondary antibody (Levin, 2004, Journal of Biochemical and Biophysical Methods 58: 85-96) until signal was optimal and background minimal (usually 12 hrs). […] Anti-KCNK1 (a generous gift of Dr. S. A. Goldstein and D. Bockenhauer) was used at 1:500. The 12-101 muscle marker (Gurdon et al., 1985, Cell 41: 913-22; Kintner and Brockes, 1984, Nature 308: 67-9) was used at 1:1 dilution; this monoclonal antibody developed by Jeremy P. Brockes was obtained from the Developmental Studies Hybridoma Bank developed under the auspices of the NICHD and maintained by The University of Iowa, Department of Biological Sciences, Iowa City, Iowa 52242."}, "[3]": {"system": "Sonic hedgehog (Shh), Nodal", "test": "Sidedness of Shh and Nodal expression in chick embryos (in ovo culture, in situ hybridization)", "details": "in vivo", "excerpt": "We examined the effect of inhibiting H^+-V-ATPase activity on the expression of the early left-sided marker Sonic hedgehog (Shh). Inhibition of H^+-V-ATPase activity following treatment with concanamycin or DCCD specifically randomized the expression of Shh, as well as that of and the downstream marker Nodal. Compared to controls, in which these two markers are always left-sided, concanamycin induced aberrant sidedness of Shh expression in 67% and Nodal in 24% of embryos. Thus, as in Xenopus, H^+-V-ATPase is upstream of the known asymmetric gene cascade, and is required for normal LR patterning in chicks.\nTo perform a pharmacological screen on chick embryos with minimal disturbance to normal morphogenesis, we optimized a chicken in ovo culture system. A small hole was made on the top of each egg (prior to incubation), and 5 ml of light albumin was removed. […]. Eggs were securely wrapped with Scotch tape, incubated at 37.5° C. to the desired stages, then fixed for analysis of laterality markers by in situ hybridization.\nWhole mount in situ hybridization (WISH) on Xenopus was performed according to standard methods. DNA used to transcribe in situ hybridization probes were XNr-1 (Lohr et al., 1998, Developmental Genetics 23: 194-202; Lowe et al., 1996, Nature 381: 158-161); cShh (Levin et al., 1995, Cell 82: 803-814); cNodal (Levin et al., 1995, Cell 82: 803-814)."}, "[4]": {"system": "H+ flux from living early blastomeres", "test": "Self-referencing ion-selective (Seris) probe measurement of H+ flux", "parameters": "species or system Xenopus laevis", "details": "in vivo", "excerpt": "We examined ion flux using a self-referencing ion probe to measure H^+ flux from living early blastomeres. The H^+-V-ATPase endogenously acts to pump protons out of the cell (e.g., it mediates proton efflux). We note, however, that other ion transporters modulate influx of ions. The term ion flux refers to movement of ions across membranes, regardless of the direction. The techniques provided herein can be used to evaluate changes in either ion efflux or influx, and thus can generally be used to evaluate ion flux and changes in ion flux following manipulation of an ion transporter protein or a class of ion transporter proteins.\nTo confirm that the asymmetric efflux was due to asymmetric H^+-V-ATPase function, we compared H^+ efflux in control embryos to efflux from embryos treated with a variety of ion flux inhibitors.\nThe self-referencing ion-selective (Seris) probe consists of an ion selective microelectrode that is translated between two points in the extracellular space near the plasma membrane of a cell. If a net flux of ion into or out of the cell is detected, the resultant concentration gradient will be detected as a voltage difference from which the ion flux through the membrane can be calculated. […]. […]"}}, "data": [{"smiles": "C/C=C/[C@H]1O[C@@](O)([C@@H](C)[C@H](O)[C@H](C)[C@H]2OC(=O)/C(OC)=C/C(C)=C/[C@@H](C)[C@@H](O)[C@@H](CC)[C@@H](O)[C@H](C)C/C(C)=C/C=C/[C@@H]2OC)C[C@@H](O)[C@@H]1C", "note": "[concanamycin]", "values": [{"measurement": "KCNK1 expression in the regeneration bud", "setting": "[1]", "value": "absent"}, {"measurement": "degree of apoptosis vs control", "setting": "[2]", "value": "no significant difference"}, {"measurement": "aberrant sidedness of Nodal expression, % of embryos", "setting": "[3]", "value": 24, "unit": "%"}, {"measurement": "aberrant sidedness of Shh expression, % of embryos", "setting": "[3]", "value": 67, "unit": "%"}, {"measurement": "expression of Shh and Nodal (sidedness)", "setting": "[3]", "value": "randomized"}, {"measurement": "left/right asymmetry in the proton fluxes", "setting": "[4]", "value": "eliminated"}, {"measurement": "proton efflux on the right side", "setting": "[4]", "value": "about half of its original value"}]}]}
